Patent publication US5854010A, “Bioassay for detecting 2,3,7,8-tetrachlorodibenzo-para-dioxin and TCDD-like compounds and novel recombinant cell line useful therefor” (priority 1997, dated 1998)
pEC50: −log10 of the molar value. Like-named read-outs stand apart in the source and are kept apart here.

Experiments:
[1] = test system: Human 101L cells (recombinant HepG2), luciferase; details: Table 3 comparison, Postlind et al.; read-out: ED50 (the source's name); cited from earlier work
H4L1.1c4 cells = test: TCDD-inducible luciferase activity, stably transfected clonal cell line; format: cell-based, rat; details: 24 h
Procedure: (§1) Using the stabilized luciferase assay system (purchased from Promega), luciferase activity in an aliquot of the cleared lysed cell supernatant (20 μl) was determined by mixing it with 100 µl of luciferase assay reagent (purchased from Promega) and measuring the resulting luminescence in a Turner Luminometer or Dynatech ML3000 microplate luminometer (light output was integrated over 1 minute after a delay time of 30 seconds).
(§2) Using a microplate adaptation of the method reported by Bradford in "A Rapid Sensitive Method for the Quantitation of Microgram Quantities of Protein Utilizing the Principle of Protein-Dye Binding", Anal. Biochem., […], pp. 248-254 (1976), luciferase activity was standardized to the protein concentration of the supernatant (with bovine serum albumin as the protein standard). Because of instrument differences in luminescence measurement and data output, luciferase activity was determined as relative light units (RLU) per microgram of protein, which was converted to milligram of protein as reported in the Tables below. […]
(§3) More particularly, isolated clones were grown until confluent, and then incubated in the absence or presence of TCDD (1 nM solubilized in DMSO) for 24 hours. After the incubation, luciferase activity was determined as described above.

H1L1.1 cells = test: as above; format: cell-based, mouse; details: 24 h
Procedure: as §1
(§4) Using a microplate adaptation of the method reported by Bradford in "A Rapid Sensitive Method for the Quantitation of Microgram Quantities of Protein Utilizing the Principle of Protein-Dye Binding", Anal. Biochem., […], pp. 248-254 (1976), luciferase activity was standardized to the protein concentration of the supernatant (with bovine serum albumin as the protein standard). Because of instrument differences in luminescence measurement and data output, luciferase activity was determined as relative light units (RLU) per microgram of protein, which was converted to milligram of protein as reported in the Tables below.
(§5) Cells from each of these five stable cell lines were cotransfected with the vectors, pGudLuc1.1 and pSV2neo (15 μg of each). Following a 24 hour incubation, the cotransfected cells were split 1 to 10 and replated into a selective medium containing the antibiotic, G418. After 2-3 weeks of growth, individual cell colonies were identified and isolated. Although numerous inducible cell clones were isolated, many contained high constitutive luciferase activity, possibly due to integration of the plasmid (or a truncated form of the plasmid) into a genomic site which allows the promoter to be continually active. […] The clones with the greatest ratio of inducible to constitutive luciferase activity were selected for further characterization.
as §3

MLEL1.1c1 cells = test: as above; format: cell-based, mouse; details: 24 h
Procedure: as §1, §4, §5, §3

rat hepatoma H4IIE cells = test: TCDD-inducible luciferase activity, transient transfection with pGudLuc1.1; format: cell-based
Procedure: (§6) In general, the expression vectors pGudLuc1.0 and pGudLuc1.1 were prepared as follows. A 1330-bp HindIII fragment or an 1810-bp HindIII fragment isolated from the plasmid, pMpap1.0 or pMpap1.1, respectively (see, El-Fouly et al., supra), was subcloned into the HindIII site immediately upstream of the luciferase gene in the plasmid pGL2-basic (purchased from Promega).
(§7) More specifically, the following cells were obtained from the source indicated. Wild-type and AhR-defective (BPRc1 and TAO, respectively) mouse hepatoma (Hepa1c1c7) cells (Hepa1), derived from a C57B1 mouse liver tumor, were obtained from J. P. Whitlock, Jr. (Stanford University). These cells were grown as previously described by Miller et al. in "Biochemical and Genetic Analysis of Variant Mouse Hepatoma Cells Defective in the Induction of Benzo(a)pyrene Metabolizing Enzyme Activity", J. Biol. Chem., Vol. 258, pp. 3523-3527 (1983). Additionally, mouse hepatoma (MLE/BV) cells, derived from a spontaneously immortalized C3H/HeN mouse liver cell, were obtained from B. V. Madhukar (Indiana University School of Medicine, Indianapolis, Ind.) and were grown as described for the Hepa1 cells. Rat hepatoma (H4IIe) cells, guinea pig intestinal adenocarcinoma (GPC16) cells, hamster lung (AHL) cells, human hepatoma (HepG2) cells, human breast tumor (MCF7) cells, and human intestinal epithelial (LS180) cells were obtained from the American Type Culture Collection (Rockville, Md.). Until transfection, all of the cells were maintained according to their respective cell-type-specific culture protocols.
(§8) Transfection was accomplished as follows. Using polybrene as previously described by Helferich et al. in "Photooxidized Products of Tryptophan Can Act as Dioxin Agonists", Mol. Pharmacol., Vol. 40, pp. 674-678 (1991), plates of cells (approximately 80% confluent) were transiently transfected with the desired plasmid (15 μg). Then, the transfected cells were allowed to grow for 48 hours, followed by the addition of either DMSO (1 μl/ml) or TCDD (1 nM) solubilized in DMSO, which was followed by incubation for 24 hours. Next, the plates were transferred onto ice, and the media were removed, after which the plates were rinsed twice with cold PBS. Then, 200 μl of luciferase lysis buffer (purchased from Promega) was used to lyse the cells. The lysed cell samples were collected and transferred into a microfuge tube. Cell debris was pelleted by centrifugation, and the supernatants were collected. The supernatant samples were assayed for TCDD-inducible luciferase activity in the following manner.
as §1, §4

[2] = test system: human breast tumor MCF7 cells; test: as above; format: cell-based
Procedure: as §6, §7, §8, §1, §4

[3] = test system: human hepatoma HepG2 cells; test: as above; format: cell-based
Procedure: as §6, §7, §8, §1, §4

[4] = test system: human intestinal epithelial LS180 cells; test: as above; format: cell-based
Procedure: as §6, §7, §8, §1, §4

[5] = test system: guinea pig intestinal adenocarcinoma GPC16 cells; test: as above; format: cell-based
Procedure: as §6, §7, §8, §1, §4

[6] = test system: mouse hepatoma Hepa1c1c7 cells (wild type); test: as above; format: cell-based
Procedure: as §6, §7, §8, §1, §4

hamster lung AHL cells = test: as above; format: cell-based
Procedure: as §6, §7, §8, §1, §4

G16L1.1c8 cells = test: TCDD-inducible luciferase activity, stably transfected clonal cell line; format: cell-based, guinea pig; details: 24 h
Procedure: as §1, §2, §3

[7] = test system: mouse hepatoma Hepa1c1c7 cells (wild type); test: TCDD-inducible luciferase activity, transient transfection with pGudLuc1.0 (lacks DREs); format: cell-based
Procedure: as §6
More specifically, the following cells were obtained from the source indicated. Wild-type and AhR-defective (BPRc1 and TAO, respectively) mouse hepatoma (Hepa1c1c7) cells (Hepa1), derived from a C57B1 mouse liver tumor, were obtained from J. P. Whitlock, Jr. (Stanford University). These cells were grown as previously described by Miller et al. in "Biochemical and Genetic Analysis of Variant Mouse Hepatoma Cells Defective in the Induction of Benzo(a)pyrene Metabolizing Enzyme Activity", J. Biol. Chem., Vol. 258, pp. 3523-3527 (1983). […]
as §1, §4

[8] = TCDD 1 nM, mean ± SD of triplicate assays
[9] = Mus musculus, TCDD 1 nM vs DMSO

SMILES: Clc1cc2c(cc1Cl)Oc1cc(Cl)c(Cl)cc1O2 [TCDD, 2,3,7,8-tetrachlorodibenzo-para-dioxin]
- pEC50 [1]: 9.46
- fold induction (H4L1.1c4 cells; Rattus norvegicus, TCDD 1 nM vs DMSO): 25
- Luciferase activity, TCDD in DMSO (H4L1.1c4 cells; [8]): 0.49 ± 0.03 RLU/mg protein
- fold induction (H1L1.1 cells; [9]): 74
- Luciferase activity, TCDD in DMSO (H1L1.1 cells; [8]): 5.92 ± 0.70 RLU/mg protein
- fold induction (MLEL1.1c1 cells; [9]): 14
- Luciferase activity, TCDD in DMSO (MLEL1.1c1 cells; [8]): 0.29 ± 0.05 RLU/mg protein
- Luciferase activity, TCDD in DMSO (rat hepatoma H4IIE cells; Luc1.1, TCDD 1 nM, 24 h): 34.2 RLU/mg protein
- fold induction (rat hepatoma H4IIE cells; Rattus norvegicus, H4IIE, Luc1.1, TCDD 1 nM vs DMSO): 28.5
- fold induction ([2]; Homo sapiens, MCF7, Luc1.1, TCDD 1 nM vs DMSO): 33.4
- Luciferase activity, TCDD in DMSO ([2]; Luc1.1, TCDD 1 nM, 24 h): 63.5 RLU/mg protein
- fold induction ([3]; Homo sapiens, HepG2, Luc1.1, TCDD 1 nM vs DMSO): 66.3
- Luciferase activity, TCDD in DMSO ([3]; Luc1.1, TCDD 1 nM, 24 h): 690 RLU/mg protein
- fold induction ([4]; Homo sapiens, LS180, Luc1.1, TCDD 1 nM vs DMSO): 18.6
- Luciferase activity, TCDD in DMSO ([4]; Luc1.1, TCDD 1 nM, 24 h): 26.0 RLU/mg protein
- fold induction ([5]; Cavia porcellus, Luc1.1, TCDD 1 nM vs DMSO): 7.6
- Luciferase activity, TCDD in DMSO ([5]; Luc1.1, TCDD 1 nM, 24 h): 28.8 RLU/mg protein
- fold induction ([6]; Luc1.1, TCDD 1 nM vs DMSO, 0.001 µM): 60 Fold
- Luciferase activity, TCDD in DMSO ([6]; Luc1.1, TCDD 1 nM, 24 h, mean of triplicate transfections): 12.1 RLU/mg protein
- fold induction ([6]; Mus musculus, Hepa-1c1c7, Luc1.1, TCDD 1 nM vs DMSO, read-out: Fold induction): 60.5
- Luciferase activity, TCDD in DMSO (hamster lung AHL cells; Luc1.1, TCDD 1 nM, 24 h): 174 RLU/mg protein
- fold induction (hamster lung AHL cells; Mesocricetus auratus, Luc1.1, TCDD 1 nM vs DMSO): 5.8
- fold induction (G16L1.1c8 cells; Cavia porcellus, TCDD 1 nM vs DMSO): 25
- Luciferase activity, TCDD in DMSO (G16L1.1c8 cells; [8]): 0.76 ± 0.03 RLU/mg protein
- Luciferase activity, TCDD in DMSO ([7]; Luc1.0, TCDD 1 nM, 24 h, mean of triplicate transfections): 0.1 RLU/mg protein
- fold induction at 0.001 µM ([7]; Mus musculus, Hepa-1c1c7, Luc1.0, TCDD 1 nM vs DMSO): 1
- Induction of luciferase activity ([7]; pGudLuc1.0, TCDD 1 nM): failed to induce luciferase activity
